# Laboratory results taken from paper PMC7557804, “The Anti-Microbial Peptide (Lin-SB056-1)2-K Reduces Pro-Inflammatory Cytokine Release through Interaction with Pseudomonas aeruginosa Lipopolysaccharide” (Antibiotics, 2020).
# Test system: A549 cells
# Experiment: Cytokine production by A549 cells stimulated with whole P. aeruginosa PAO1
# Type: cell-based, Human
# Conditions: 4 h, 37 °C, 5% CO2
# Protocol: The reference strain P. aeruginosa PAO1 (ATCC 15692) was used in this study. For the preparation of stock cultures, bacteria were grown in Tryptone Soy Broth (TSB; Thermo Fisher Scientific, Waltham, MA, USA) until mid-exponential phase, then aliquoted and stored at −80 °C. For the preparation of the inoculum, a volume of 50 μL of the frozen culture was inoculated in 5 mL of TSB, and subsequently incubated for 18 h at 37 °C. […]
# In some experiments, the ability of (lin-SB056-1)2-K to inhibit cytokine production by A549 cells stimulated with whole P. aeruginosa (PAO1 strain) was assessed. […]
# Different pro-inflammatory cytokines (i.e., IL-1β, IL-6, IL-8 and TNF-α) were quantified in cell culture supernatants through a bead-based multiplex immunoassay (LEGENDplex multi-analyte flow assay kit; BioLegend, San Diego, CA, USA) following manufacturer’s instructions. […] Following consecutive washing steps, the beads were resuspended in the LEGENDplex wash buffer and the samples were analyzed by flow cytometry (BD Accuri C6 flow cytometer; BD Biosciences, Mountain View, CA, United States). Data were acquired with the BD Accuri C6 software (BD Biosciences) (300 events per analyte) and analyzed with the LEGENDplex software (BioLegend). […]
substance,measurement,setting,value
"[KWKIRVRLSA]2-K [(lin-SB056-1)2-K, dendrimeric derivative of lin-SB056-1]",reduction in IL-6 levels,"9.6 μM peptide, PAO1 fixed with 4% paraformaldehyde, 5 × 10^6 CFU/well, statistically significant, mean of at least three independent experiments",up to 70%
same,effect on IL-8 release,"9.6 and 19.25 μM peptide, fixed PAO1 5 × 10^6 CFU/well",no evident effect
